In one assay the test system is NMDA receptor. Put plainly: MEA recording with pharmacological intervention (D-APV). Format: cell-based, human. Conditions: D-APV 50 μM (FIG. 8g legend), Hase-1000 samples at week 4, vs DMSO. On the procedure:
MEA recording of 3D-bioprinted mini-brains was performed from week 1 to week 4 after differentiation (day 10 to day 31 after digestion). The samples containing SNaPs were plated on Geltrex-coated 12-well MEA plates (Axion Biosystems, USA) in the differentiation medium. The samples were fed 2-3 times a week with partial medium change. Neuronal activities were measured every week using the Maestro 12-well MEA plate system (Axion Biosystems) for 5 min. After 4 weeks of culture in MEA plate, synaptic contents were tested using pharmacological inhibitors of neurotransmitter receptors. […] The samples were incubated for 5-10 min, and neuronal activities were assessed again for 5 min. All the MEA data were analyzed using the Axion Integrated Studio 2.4.2 and the Neural Metric Tool (Axion Biosystems).

Another assay relates to AMPA receptor. In words: MEA recording with pharmacological intervention (NBQX). Format: cell-based, human. Conditions: NBQX 10 μM, Hase-1000 samples at week 4, vs DMSO. Here is the method: MEA recording of 3D-bioprinted mini-brains was performed from week 1 to week 4 after differentiation (day 10 to day 31 after digestion). The samples containing SNaPs were plated on Geltrex-coated 12-well MEA plates (Axion Biosystems, USA) in the differentiation medium. The samples were fed 2-3 times a week with partial medium change. Neuronal activities were measured every week using the Maestro 12-well MEA plate system (Axion Biosystems) for 5 min. After 4 weeks of culture in MEA plate, synaptic contents were tested using pharmacological inhibitors of neurotransmitter receptors. Specifically, neuronal activity was measured for 5 min by adding DMSO control before adding 10 μM of NBQX (Abcam) or 10 μM of D-APV (Abcam). The samples were incubated for 5-10 min, and neuronal activities were assessed again for 5 min. All the MEA data were analyzed using the Axion Integrated Studio 2.4.2 and the Neural Metric Tool (Axion Biosystems).

The values that follow come from patent publication US20260071187A1, “MOLECULARLY CLEAVABLE BIOINK FORMULATION” (THE BRIGHAM AND WOMEN'S HOSPITAL, INC., priority 2022, published 2026).

For the compound `N[C@H](CCCP(=O)(O)O)C(=O)O` [D-APV, D-2-amino-5-phosphonovaleric acid], in the assay with NMDA receptor, the burst frequency result is “significantly reduced” and the firing entry is reported as “significantly reduced”.
Turning to `NS(=O)(=O)c1cccc2c1c([N+](=O)[O-])cc1nc(O)c(O)nc12` [NBQX, 2,3-dihydroxy-6-nitro-7-sulfamoyl-benzo(F)quinoxaline], in the assay with AMPA receptor, the burst frequency entry is recorded as “significantly reduced” and the mean firing rate entry is listed as “significantly reduced”.
